Measurements taken from patent publication US8951999B2, “Compounds” (Orexo AB, priority 2009, dated 2015).

target: T1, recombinant human mPGES-1 (Homo sapiens, UniProt O14684); assay: Assay B: mPGES-1 enzyme assay (modified); assay type: biochemical; conditions: biological assay B (all other compounds); PGH2 final conc. 2 μM, HTRF; read-out: mPGES-1 inhibitory effect IC50
T1 sequence (O14684 1-152): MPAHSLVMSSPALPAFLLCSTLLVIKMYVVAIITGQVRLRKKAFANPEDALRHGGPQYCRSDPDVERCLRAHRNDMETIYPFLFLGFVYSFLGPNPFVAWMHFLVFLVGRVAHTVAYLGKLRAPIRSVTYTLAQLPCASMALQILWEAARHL
Experimental: Assay B: mPGES-1 Enzyme Assay (Modified)
The aim of this assay is to determine the affinity of a test compound for the mPGES-1 enzyme.
47 μl of recombinant human mPGES-1 (˜0.5 μg protein/well) containing microsomal suspension in a buffer containing GSH, (2.5 mmol/L L-Glutathione reduced, dissolved in 0.1 mol/L Phosphat Buffer pH 7.4) is dispensed in a 384-well plate and thereafter 1 μl of the test compound(s) is/are added and incubated for 25 minutes at room temperature. The enzyme reaction is started by the addition of 2 ul PGH2 (final conc. 2 μM) dissolved in water-free Diglyme. After 60 seconds the reaction is terminated by addition of a stop solution containing FeCl2 (10 μL 0.074 mol/l FeCl2). The samples are diluted between 1:25 in PBS (Phosphate Buffered Saline). 10 μl of the diluted samples are transferred to 384-well low volume plate. In order to quantify the amount of PGE2 that has been formed, a homogenous time resolved fluorescent (HTRF) detecting of PGE2 has been performed using a commercially available kit from Cisbio according to the manufactures recommendation. This HTRF-based assay has been described in detail (see: Goedken et al., J Biomol Screen, 2008, 13(7), 619-625). Briefly, the diluted samples are mixed with […] PGE2-d2 conjugate and 5 μl anti-PGE2 cryptate conjugate. After an incubation period of the plates over night, the fluorescence is measured by the use of an appropriate microplate reader.
The fluorescence of Europium cryptate (maxex=307 nm, maxem=620 nm) and d2-PGE2 (maxex=620 nm, maxem=665 nm) are measured.
The extent of the specific HTRF is measured as a ratio of the emission intensity at 665 nm vs. that at 620 nm at an excitation pulse of 320 nm. The quantification plate contains also wells with different concentrations of PGE2 as calibration curve for the calculation of the PGE2 concentrations from the HTRF ratio values.
From all mPGES enzyme assay the background is subtracted and the IC50 is calculated over a nonlinear regression with conventional software.

| Compound | IC50 [nM] |
| --- | --- |
| CC(NC(=O)c1cc(NC(=O)c2c(Cl)ccc(CNC(=O)C(C)(C)C(F)(F)F)c2Cl)ccc1OCC(F)F)C(F)(F)F (stereo not shown) [Example 159] | 7 |
| O=C(Nc1ccc(OC2CCOC2)c(C(=O)N[C@H]2CC[C@H](C(F)(F)F)CC2)c1)c1cc(CNC(=O)C2(C(F)(F)F)CC2)ccc1Cl (stereo partly shown) [Example 68] | 9 |
| NC(C(=O)NCc1ccc(Cl)c(C(=O)Nc2ccc(OCC(F)F)c(C(=O)Nc3ccc(Br)cc3)c2)c1)C(F)(F)F (stereo not shown) [Example 174] | 8 |
| CC(NC(=O)c1cc(NC(=O)c2cc(CNC(=O)C(C)(C)C(F)(F)F)ccc2Cl)ccc1OCC(F)F)C(F)(F)F (stereo not shown) [Example 99] | 7 |
| CC(C)(C)C(=O)NCc1ccc(F)c(C(=O)Nc2ccc(F)c(C(=O)Nc3ccc(Br)cc3)c2)c1F [Example 49, N-[4-Fluoro-3-(4-bromophenyl)aminocarbonyl-phenyl]-2,6-difluoro-3-(tert-butylcarbonylamino)methyl-benzamide] | 120 |
| COC(C)(C)C(=O)NCc1ccc(Cl)c(C(=O)Nc2ccc(OCC(F)F)c(C(=O)Nc3ccc(Br)cc3)c2)c1 [Example 160] | 7 |
| CC(C)(C)C(=O)NCc1ccc(Cl)c(C(=O)Nc2ccc(N3CC(F)(F)C3)c(C(=O)Nc3ccc(Br)cc3)c2)c1 [Example 60, N-[4-(3,3-Difluoro-azetidin-1-yl)-3-(4-bromphenyl)aminocarbonyl-phenyl]-2-chloro-5-(tert-butylcarbonylamino)methyl-benzamide] | 26 |
| CC(C)(C(=O)NCc1ccc(Cl)c(C(=O)Nc2ccc(OCC(F)F)c(C(=O)NCc3cccc(C(F)(F)F)c3)c2)c1)C(F)(F)F [Example 101] | 9 |
| CC(C)(C(=O)NCc1ccc(Cl)c(C(=O)Nc2ccc(OCC(F)F)c(C(=O)NC3CCc4ccccc4C3)c2)c1)C(F)(F)F (stereo not shown) [Example 85] | 6 |
| CCNC(=O)c1cc(NC(=O)c2cc(CNC(=O)C(C)(C)C(F)(F)F)ccc2Cl)ccc1OCC(F)F [Example 112] | 16 |
| COCCOc1ccc(NC(=O)c2cc(CNC(=O)C(C)(C)C)ccc2Cl)cc1C(=O)N[C@H]1CC[C@H](C(F)(F)F)CC1 [Example 71] | 10 |
| CC(C)(C(=O)NCc1ccc(Cl)c(C(=O)Nc2ccc(OCC(F)F)c(C(=O)Nc3ccc(Cl)c(C#N)c3)c2)c1)C(F)(F)F [Example 106] | 6 |
| CC(C)NC(=O)c1cc(NC(=O)c2cc(CNC(=O)C(C)(C)C(F)(F)F)ccc2Cl)ccc1OCC(F)F [Example 110] | 17 |
| CC(C)(C(=O)NCc1ccc(Cl)c(C(=O)Nc2ccc(OCC(F)F)c(C(=O)NC3CCCOC3)c2)c1)C(F)(F)F (stereo not shown) [Example 123] | 48 |
| CC(C)(C(=O)NCc1ccc(Cl)c(C(=O)Nc2ccc(OCC(F)F)c(C(=O)NCCCC(F)(F)F)c2)c1)C(F)(F)F [Example 121] | 11 |
| CC(C)(C)C(=O)NCc1ccc(F)c(C(=O)Nc2ccc(OCC(F)F)c(C(=O)N[C@H]3CC[C@H](C(F)(F)F)CC3)c2)c1F [Example 50] | 34 |
| CC(C)(C(=O)NCc1ccc(Cl)c(C(=O)Nc2ccc(OCC(F)F)c(C(=O)NCc3ccccc3C(F)(F)F)c2)c1)C(F)(F)F [Example 84] | 6 |
| CC(C)(C(=O)NCc1ccc(Cl)c(C(=O)Nc2ccc(OCC(F)F)c(C(=O)NCCC(F)(F)F)c2)c1)C(F)(F)F [Example 115] | 15 |
| O=C(Nc1ccc(OCC(F)F)c(C(=O)Nc2ccc(Br)cc2)c1)c1cc(CNC(=O)C(F)(F)F)ccc1Cl [Example 80] | 10 |
| CNC(=O)c1cc(NC(=O)c2cc(CNC(=O)C(C)(C)C(F)(F)F)ccc2Cl)ccc1OCC(F)F [Example 97] | 79 |
| CC(C)(C(=O)NCc1ccc(Cl)c(C(=O)Nc2ccc(OCC(F)F)c(C(=O)NC3CCC3)c2)c1)C(F)(F)F [Example 122] | 7 |
| CC(C)(C(=O)NCc1ccc(Cl)c(C(=O)Nc2ccc(OCC(F)F)c(C(=O)NCCC3CC3)c2)c1)C(F)(F)F [Example 143] | 6 |
| CC(C)(C(=O)NCc1ccc(Cl)c(C(=O)Nc2ccc(OCC(F)F)c(C(=O)NCC(F)(F)C(F)(F)F)c2)c1)C(F)(F)F [Example 114] | 10 |
| CC(C)(C(=O)NCc1ccc(Cl)c(C(=O)Nc2ccc(OCC(F)F)c(C(=O)NC3CCC4(CC3)CC4)c2)c1)C(F)(F)F [Example 136] | 7 |
| CC(C)(C(=O)NCc1ccc(Cl)c(C(=O)Nc2ccc(OCC(F)F)c(C(=O)Nc3ccncc3Cl)c2)c1)C(F)(F)F [Example 137] | 9 |
| CC(C)(O)C(=O)NCc1ccc(Cl)c(C(=O)Nc2ccc(OCC(F)F)c(C(=O)Nc3ccc(Br)cc3)c2)c1 [Example 172] | 6 |
| CC(C)(C(=O)NCc1ccc(Cl)c(C(=O)Nc2ccc(OCC(F)F)c(C(=O)NC3CCC(F)(F)CC3)c2)c1Cl)C(F)(F)F [Example 157] | 22 |

Continued, values first:

| IC50 [nM] | Compound |
| --- | --- |
| 2 | CC(C)(C)NC(=O)c1cc(NC(=O)c2c(Cl)ccc(CNC(=O)C(C)(C)C(F)(F)F)c2F)ccc1OCC(F)F [Example 78] |
| 6 | CC(C)(C(=O)NCc1ccc(Cl)c(C(=O)Nc2ccc(OCC(F)F)c(C(=O)Nc3ccc(Cl)cc3Cl)c2)c1)C(F)(F)F [Example 94] |
| 5 | Cc1c(CNC(=O)C(C)(C)C)ccc(Cl)c1C(=O)Nc1ccc(OCC(F)F)c(C(=O)Nc2ccc(Br)cc2)c1 [Example 51, N-[4-(2,2-Difluoroethyl)oxy-3-(4-bromophenyl)aminocarbonyl-phenyl]-6-chloro-2-methyl-3-(tert-butylcarbonylamino)methyl-benzamide] |
| 4 | CC(C)(C(=O)NCc1ccc(Cl)c(C(=O)Nc2ccc(OCC(F)F)c(C(=O)Nc3cc(F)cc(Cl)c3)c2)c1)C(F)(F)F [Example 113] |
| 5 | CC(C)(C(=O)NCc1ccc(Cl)c(C(=O)Nc2ccc(OCC(F)F)c(C(=O)Nc3ccc(Br)cc3F)c2)c1)C(F)(F)F [Example 100] |
| 5 | CC(C)(C(=O)NCc1ccc(Cl)c(C(=O)Nc2ccc(OCC(F)F)c(C(=O)Nc3ccc(Cl)c(F)c3)c2)c1)C(F)(F)F [Example 108] |
| 5 | CC(C)(C)C(=O)NCc1ccc(Cl)c(C(=O)Nc2ccc(OC3CCOC3)c(C(=O)Nc3ccc(Br)cc3)c2)c1 (stereo not shown) [Example 66, N-[4-(Tetrahydrofuran-3-yloxy)-3-(4-bromophenyl)aminocarbonyl-phenyl]-2-chloro-5-(tert-butyl-carbonylaminomethyl)-benzamide] |
| 5 | CC(C)(C(=O)NCc1ccc(Cl)c(C(=O)Nc2ccc(OCC(F)F)c(C(=O)Nc3c(F)ccc(F)c3F)c2)c1F)C(F)(F)F [Example 79] |
| 2 | CC(C)(C(=O)NCc1ccc(Cl)c(C(=O)Nc2ccc(OCC(F)F)c(C(=O)Nc3ccc(Br)cc3)c2)c1)C(F)(F)F [Example 81] |
| 6 | Cc1cc(NC(=O)c2cc(NC(=O)c3cc(CNC(=O)C(C)(C)C(F)(F)F)ccc3Cl)ccc2OCC(F)F)ccc1Cl [Example 92] |
| 2 | COc1cc(Cl)ccc1NC(=O)c1cc(NC(=O)c2c(Cl)ccc(CNC(=O)C(C)(C)C(F)(F)F)c2Cl)ccc1OCC(F)F [Example 158] |
| 4 | CC(C)(C(=O)NCc1ccc(Cl)c(C(=O)Nc2ccc(OCC(F)F)c(C(=O)Nc3ccc(OC(F)(F)F)c(Cl)c3)c2)c1)C(F)(F)F [Example 130] |
| 6 | CC(C)(C(=O)NCc1ccc(Cl)c(C(=O)Nc2ccc(OCC(F)F)c(C(=O)Nc3ccc(F)cc3Cl)c2)c1)C(F)(F)F [Example 116] |
| 2 | CC(C)(C(=O)NCc1ccc(Cl)c(C(=O)Nc2ccc(N3CCC(F)CC3)c(C(=O)Nc3ccc(F)c(Cl)c3)c2)c1F)C(F)(F)F [Example 57, N-[4-(4-Fluoro-piperidin-1-yl)-3-(3-chloro-4-fluorophenyl)aminocarbonyl-phenyl]-2-fluoro-6-chloro-3-[(2,2,2-trifluoro-1,1-dimethyl-ethyl)carbonylamino]methyl-benzamide] |
| 1 | CC(C)(C(=O)NCc1ccc(Cl)c(C(=O)Nc2ccc(OCC(F)F)c(C(=O)Nc3ccc(Cl)c(F)c3)c2)c1Cl)C(F)(F)F [Example 156] |
| 2 | CC(C)(C)C(=O)NCc1ccc(Cl)c(C(=O)Nc2ccc(N3CCC(F)(F)CC3)c(C(=O)Nc3ccc(Br)cc3)c2)c1Cl [Example 181] |
| 4 | COCCOc1ccc(NC(=O)c2cc(CNC(=O)C(C)(C)C(F)(F)F)ccc2Cl)cc1C(=O)N[C@H]1CC[C@H](C(F)(F)F)CC1 [Example 64] |
| 5 | CC(C)(C)C(=O)NCc1ccc(Cl)c(C(=O)Nc2ccc(N3CCC(C(F)(F)F)CC3)c(C(=O)NCC3CC3)c2)c1 [Example 63] |
| 4 | COCCOc1ccc(NC(=O)c2cc(CNC(=O)C(C)(C)C(F)(F)F)ccc2Cl)cc1C(=O)Nc1ccc(Br)cc1 [Example 72] |
